Experimental data as given in article PMC9820303, “^αN-Acetyl β-Endorphin Is an Endogenous Ligand of σ1Rs That Regulates Mu-Opioid Receptor Signaling by Exchanging G Proteins for σ2Rs in σ1R Oligomers” (International Journal of Molecular Sciences, 2022).
Structures can show the parent of a compound that is named as a salt. No end group written: not given here.

Tests used:
[1] = system: CD1 mice (wild-type and σ1R−/−); assay: Supraspinal analgesia, warm water (52 °C) tail-flick test; type: in vivo, mouse; conditions: for analgesia of the substance in σ1R−/− mice compared with wild-type: icv: morphine 3 nmol, β-End 1–31 0.5 nmol, DAMGO 0.1 nmol, DPDPE 10 nmol, WIN55,212-2 15 nmol, 8 mice per strain
Description: Upper panel: the withdrawal thresholds of the contralateral and ipsilateral paws were measured before (indicated as 0) and up to 14 days after surgery. […] Middle panel: 0.3 and 3 nmol of ^αN-acetyl β-End 1–31 were administered icv 7 days after surgery, and the nociceptive threshold was evaluated at the indicated postinjection intervals (in minutes). For every time interval studied in min or days, * indicates a significant difference from the group that received saline instead of ^αN-acetyl β-End 1–31; ϕ significant difference from the effect of 3 nmol ^αN-acetyl β-End 1–31. […] All data are presented as the mean ± SD of six mice. ANOVA followed by the Holm–Sidak multiple comparisons test, p < 0.05, 1-β > 0.80. […] Upper panel: wild-type mice were injected icv with saline, ^αN-acetyl β-End 1–31 (1 nmol/mouse) or the combination of the σ1R agonist PPCC (3 nmol/mouse) plus ^αN-acetyl β-End 1–31 20 min before morphine and β-End 1–31. Analgesia was evaluated by the warm water (52 °C) tail-flick test at the interval postinjection corresponding to their peak effect, 30 min. Lower panel: σ1R^−/− mice received 1 nmol ^αN-acetyl β-End 1–31, 20 min before morphine and β-End 1–31 and analgesia was evaluated as described above. Eight mice were used per strain and treatment. * Significant difference with respect to the group treated with morphine or β-End 1–31 alone. ANOVA followed by the Holm–Sidak multiple comparisons test, p < 0.05, 1-β > 0.80.
Figure 3 Effect of physiological β-End 1–31 derivatives on morphine and β-End 1–31 analgesia. […] (A) The mice were icv-injected with 25 nmol of β-End 1–26, β-End 1–27 and ^αN-acetylated derivatives 20 min before icv 0.5 nmol β-End 1–31. Analgesia was determined at the indicated postinjection intervals. (B) CD1 wild-type and σ1R^−/− mice were administered C terminal peptide sequences 27–31, 28–31 and 30–31 of β-End 1–31 through an icv injection 20 min before 0.5 nmol of the whole β-End 1–31 and morphine (10 nmols) were injected icv. […] (C) A series of exogenous σ1R ligands (3 nmol) were icv-injected 20 min before 0.5 nmol β-End 1–31 was administered via icv in wild-type mice. The σ1R antagonist S1RA was also icv-injected before β-End 1–31 was administered icv in σ1R^−/− mice. (D) The effects of several doses of S1RA on morphine analgesia were studied in wild-type and σ1R^−/− mice. […] ANOVA followed by the Holm–Sidak multiple comparisons test, p < 0.05, 1-β > 0.80.
(A) The effect of σ1R deletion on opioid- and cannabinoid-induced analgesia. Analgesic compounds were icv-injected into wild-type and σ1R^−/− mice, and analgesia was evaluated 30 min after morphine (3 nmol) and β-End 1–31 (0.5 nmol), 15 min after DAMGO (0.1 nmol) and DPDPE (10 nmol) and 10 min after WIN55,212-2 (15 nmol). The bars are the mean ± SD of eight mice per strain and treatment. * Significant difference with respect to the effect of the analgesic substance in the wild-type group. ANOVA followed by the Holm–Sidak multiple comparisons test, p < 0.05, 1-β > 0.80. (B) Coprecipitation of G proteins with MORs. Solubilized mouse brain cortical membranes enriched in synaptosomes (SBM) from CD1 wild-type (WT) and σ1R^−/− mice were solubilized with sonication in the presence of 1% NP-40. Non-soluble debris was eliminated, and the samples were then incubated overnight at 4 °C with affinity-purified biotinylated IgGs that were raised against extracellular regions of the MOR. Protein complexes that were immunoprecipitated with streptavidin agarose were extensively washed and then resolved by SDS-PAGE.

[2] = biological target: σ1R-σ2R (Mus musculus, UniProt O55242); assay: In vitro σ1R-σ2R association of recombinant proteins (HaloLink-σ2R, Western blot); type: biochemical, murine; design: The coding region of the full-length murine σ1R (AF004927); GST (N, cleaved yes); made in house; host or cells: E. coli BL21 (KRX); conditions: increasing concentrations; 30 min RT; vs control without ligand
Description: (§1) Figure 7 Effect of β-End 1–31, ^αN-acetyl β-End 1–31 and their N-terminal derivatives on σ1R-σ2R, σ1R-NR1 C1 and σ1R-BiP associations. Amino acid sequence of β-End 1–31 showing derivatives 1–26 and 1–27. (A) HaloLink-attached σ2Rs were incubated for 30 min at RT in the presence of σ1Rs (100 nM) in 300 μL of 50 mM Tris-HCl (pH 7.4), 0.2% CHAPS, and 2.5 mM CaCl2. After removing the unbound σ1R proteins, the effects of increasing the peptide concentrations on σ1R-σ2R associations were studied. At the end of the incubation, protein complexes bound to HaloLink-σ2R were obtained by centrifugation, washed three times, solubilized in 2× Laemmli buffer containing β-mercaptoethanol, resolved by SDS-PAGE, and analyzed by Western blotting (for more details, see Section 4). This protocol was also used to assess the effect of ligands on (B) σ1R-NR1 C1 and (C) σ1R-BiP associations. Data were compared to that of the control, which was obtained in the absence of ligands. (A–C) Data are the mean ± SD, n = 3. (D) The β-End 1–31 structural models were predicted by Novafold (DNASTAR Lasergene protein v.17, Inc., Madison, WI, USA). Ribbon model: The 3D structure, charge distribution and hydrophobicity map of β-End 1–31 are shown. Positive charges are shown in red and negative charges in blue. Polar surfaces are shown in yellow, and nonpolar surfaces are shown in orange. Linear model: the opioid (1–5) and flexible region (8–11) sequences are shown in green and orange, respectively, and the amphiphilic helix (15–25) is shown in pink.
(§2) The recombinant σ1R (100 nM) was incubated either with Haloprotein (negative control) or together with the immobilized σ2R, NR1 C0-C1-C2 or BiP proteins in 300 µL of a buffer containing 50 mM Tris-HCl (pH 7.4) and 0.2% CHAPS in the presence of 2.5 mM CaCl2 for 30 min at RT. After removal of the unbound σ1R, the agarose-attached complexes were incubated for 30 min with rotation at RT in the presence of increasing concentrations of the ligands in a final reaction volume of 300 µL [50 mM Tris-HCl (pH 7.4), 2.5 mM CaCl2 and 0.2% CHAPS]. Ligands were usually dissolved in aqueous solutions; however, when an organic solvent such as DMSO was required to incorporate, e.g., pregnenolone sulfate, the solvent remained below 1% in the assay buffer. Agarose pellets containing the bound proteins were obtained by centrifugation, washed and resuspended thrice in the presence of 2.5 mM CaCl2, solubilized in 2× Laemmli buffer plus β-mercaptoethanol, and analyzed by Western blotting.
(§3) Because all the assays were performed with recombinant proteins, the immune signals provided a single band of the expected size, which was used for the subsequent densitometry analysis. Accordingly, no other regions of the blots provided information and were routinely excluded from the analysis.
Figure S7. Effect of σ1R agonist/antagonist ligands on σ1R-σ2R heterodimers. (A-C) Agarose (Θ)- attached σ2Rs captured recombinant σ1Rs. After removing unbound σ1R proteins, the Θ-σ2R.σ1R complexes were incubated with a ﬁxed concentration of a selected L1 ligand (indicated in brackets) in the absence and presence of increasing concentrations of competing σ1R ligands as indicated. The σ1Rs that remained attached to the Θ-σ2Rs were evaluated by Western blotting. * Signiﬁcant differences with respect to the control group that was incubated without L1 ligands. ANOVA followed by the Holm-Sidak multiple comparisons test, p < 0.05. For details, see Methods and Figure 6A. Representative blots are […]
Figure S8. Effect of the physiological and nonphysiological sequences of β-End 1-31 and classical σ1R ligands on BiP-σ1R, σ2R-σ1R and NR1 C1-σ1R associations . Agarose-BiP was loaded with σ1Rs, and after the unbound σ1Rs were removed, the agarose-BiP-σ1R complexes were incubated in the absence (control) and presence of increasing concentrations of (A) β-End 1-31 C-terminal physiological derivatives and (B) classical σ1R ligands. C) Agarose-σ2R loaded with σ1Rs was incubated in the […]

[3] = biological target: T1, σ1R-NR1 C1 (Mus musculus, UniProt O55242); assay: In vitro σ1R-NR1 C1 association of recombinant proteins (Western blot); type: biochemical, murine; conditions: increasing concentrations; 30 min RT; vs control without ligand
T1 construct: The coding region of the full-length murine σ1R (AF004927); GST (N, cleaved yes); made in house; host or cells: E. coli BL21 (KRX)
Description: as §1, §2, §3
Figure S8. Effect of the physiological and nonphysiological sequences of β-End 1-31 and classical σ1R ligands on BiP-σ1R, σ2R-σ1R and NR1 C1-σ1R associations . […]
D) Agarose-NR1 C1 loaded with […]
σ1Rs were incubated in the absence (control) and with nonphysiological derivatives of β-End 1-31. A-D) The σ1Rs that remained attached to the agarose complexes were evaluated by Western blotting. The […]
(§4) (1 picture or pasted object on this page, not shown here)
Figure S9. Effect of σ1R agonist/antagonist ligands on σ1R-NR1 C1 associations. Θ-Agarose-NR1 C1 was loaded with recombinant σ1Rs. After unbound σ1R proteins were removed, the complexes were incubated with (A) 1 nM β-End 1-31, (B) αN-acetyl β-End 1-31, (C-D) β-End 28-31 in the absence (black columns) and presence of (A) 10 nM or (B-D) increasing concentrations of competing σ1R ligands as indicated. The σ1Rs that remained attached to the Θ-σ2Rs were evaluated by Western blotting. The […]
Prog is progesterone; PregSulfate is pregnenolone sulfate; Nac is […]

[4] = biological target: T2, σ1R-BiP (Mus musculus, UniProt O55242); assay: In vitro σ1R-BiP association of recombinant proteins (Western blot); type: biochemical
T2 construct: The coding region of the full-length murine σ1R (AF004927); GST (N, cleaved yes); host or cells: E. coli BL21 (KRX) for σ1R
Description: as §1, §2, §3
Figure S8. Effect of the physiological and nonphysiological sequences of β-End 1-31 and classical σ1R ligands on BiP-σ1R, σ2R-σ1R and NR1 C1-σ1R associations . Agarose-BiP was loaded with σ1Rs, and after the unbound σ1Rs were removed, the agarose-BiP-σ1R complexes were incubated in the absence (control) and presence of increasing concentrations of (A) β-End 1-31 C-terminal physiological derivatives and (B) classical σ1R ligands. C) Agarose-σ2R loaded with σ1Rs was incubated in the absence (control) and with nonphysiological derivatives of β-End 1-31. D) Agarose-NR1 C1 loaded with σ1Rs were incubated in the absence (control) and with nonphysiological derivatives of β-End 1-31. A-D) The σ1Rs that remained attached to the agarose complexes were evaluated by Western blotting. The […]
as §4
Figure S10. Effect of σ1R agonist/antagonist ligands on σ1R-BiP associations. Agarose-attached BiP proteins were incubated for 30 min in the presence of recombinant σ1R (100 nM) proteins in 300 μL of 50 mM Tris-HCl (pH 7.4), 0.2% CHAPS, and 2.5 mM CaCl2. After the unbound σ1R proteins were […]

T1 sequence (O55242 whole entry): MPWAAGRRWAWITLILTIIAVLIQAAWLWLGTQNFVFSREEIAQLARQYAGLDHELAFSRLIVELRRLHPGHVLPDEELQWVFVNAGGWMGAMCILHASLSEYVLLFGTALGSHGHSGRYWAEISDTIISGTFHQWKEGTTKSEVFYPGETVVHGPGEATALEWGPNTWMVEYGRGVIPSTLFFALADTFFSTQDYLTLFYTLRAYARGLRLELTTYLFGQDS
Sequence of σ1R-σ2R (O55242 whole entry): as above
T2 sequence (O55242 whole entry): as above

Molecule: Cc1c(C(=O)c2cccc3ccccc23)c2cccc3c2n1[C@H](CN1CCOCC1)CO3 [WIN55,212–2]
- analgesia of the substance in σ1R−/− mice compared with wild-type [1]: did not significantly change

Molecule: CN1CC[C@]23c4c5ccc(O)c4O[C@H]2[C@@H](O)C=C[C@H]3[C@H]1C5 [morphine, morphine sulfate]
- analgesia of the substance in σ1R−/− mice compared with wild-type [1]: increased analgesic response

Molecule: ([D-Ala2, N-MePhe4, Gly-ol]-enkephalin [DAMGO]
- analgesia of the substance in σ1R−/− mice compared with wild-type [1]: augmented

Molecule: ([D-Pen2,D-Pen5]enkephalin) [DPDPE]
- analgesia of the substance in σ1R−/− mice compared with wild-type [1]: did not significantly change

Molecule: GGFL [leu-enkephalin 2–5 metabolite]
- effect on σ1R-σ2R association [2]: disrupted this association

Molecule: GGFM [met-enkephalin 2–5 aminopeptidase product]
- effect on σ1R-σ2R association [2]: promoted the sigma receptor heterodimer

Molecule: YGGFL [leu-enkephalin, leucine-enkephalin 1–5]
- effect on σ1R-NR1 C1 association [3]: dissociated σ1R-NR1 C1 complexes
- effect on σ1R-σ2R association [2]: disrupted this association

Molecule: YGGFM [met-enkephalin, methionine-enkephalin, β-End N-terminal derivative 1–5]
- effect on σ1R-NR1 C1 association [3]: enhancement
- effect on σ1R-σ2R association [2]: promoted the sigma receptor heterodimer

Molecule: ^αN-acetyl leu-enkephalin: chimeric ^αN-acetylated leu-enkephalin
- effect on σ1R-σ2R association [2]: protective

Molecule: ^αN-acetyl β-End 1–27: ^αN-acetylated form of β-End 1–27 (Ac-YGGFMTSEKSQTPLVTLFKNAIIKNAY; UniProt P01189 237-263, looked up, fragment)
- activity at σ1R-BiP against agonists / β-End 1–31 ([4]; 1 nM β-End 1–31 with increasing competitor (Figure S10)): antagonist activity
- effect on σ1R-BiP association ([4]; increasing concentrations, 30 min RT, vs control without ligand): promoted σ1R-BiP complexes

Molecule: β-End 1–4: fragment 1–4 of β-End 1–31 (YGGF; Beta-endorphin; UniProt P01189 237-240, looked up, fragment)
- effect on σ1R-NR1 C1 association [3]: enhancement

Molecule: β-End 1–16: nonphysiological fragment of β-End 1–31 (YGGFMTSEKSQTPLVT; Beta-endorphin; UniProt P01189 237-252, looked up, fragment)
- effect on β-End 1–31 analgesia, nonphysiological fragments ([1]; 1 nmol icv 20 min before 0.5 nmol β-End 1–31 icv, 6 mice): practically did not alter β-End 1–31 analgesia

Molecule: β-End 2–31: β-End 1–31 without Y1 (GGFMTSEKSQTPLVTLFKNAIIKNAYKKGE; Beta-endorphin; UniProt P01189 238-267, looked up, fragment)
- effect on σ1R-NR1 C1 association [3]: promoting the σ1R-NR1 C1 association
- effect on σ1R-σ2R association [2]: diminished σ1R-σ2R associations
